Among the test systems are DU-145 prostate; HCT-116 colon; HCT-15 colon; HOP-92 NSCLC; IGROV1 ovarian; MALME-3M melanoma; MDA-MB-231 breast; MDA-MB-435; OVCAR-8 ovarian; SF-268 CNS.
Common to all, as to assay: NCI-60 cell line screen, 48 h

The structures appear in SMILES notation.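 Growth conditions: 96-well plates. Treatment: test compound, 48 hours, 5 concentrations. Analysis: linear interpolation between bracketing concentrations; unreached endpoints set to highest concentration. GI50 marks 50% less growth. At the TGI there is no net growth.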

As to `c1ccc(-c2cnc(-c3ccc(-c4ncc(-c5ccccc5)o4)cc3)o2)cc1`, the TGI in the experiment with DU-145 prostate, in the experiment on HCT-116 colon, with HCT-15 colon, in the experiment with HOP-92 NSCLC, in the experiment with IGROV1 ovarian and with MALME-3M melanoma was above 100 µM throughout. Moreover, the TGI in the experiment on MDA-MB-231 breast, in the experiment on MDA-MB-435, with OVCAR-8 ovarian and with SF-268 CNS was above 100 µM throughout.
For `O=C1CCCc2cc3c(cc21)CC1(C3)Cc2ccc3c(c2C1)C(=O)CCC3` (stereo not given), the TGI with DU-145 prostate was above 100 µM; in the experiment on HCT-116 colon, above 100 µM; in the experiment with HCT-15 colon it was above 100 µM; with HOP-92 NSCLC it was above 100 µM; with IGROV1 ovarian, above 100 µM; with MALME-3M melanoma, 43.6 µM. Also, the TGI in the experiment with MDA-MB-231 breast was above 100 µM; in the experiment with MDA-MB-435, 23.8 µM; with OVCAR-8 ovarian, above 100 µM; in the experiment on SF-268 CNS it was above 100 µM.
In the case of `O=C(Nc1ccc(-n2cc(-c3ccncc3)c(-c3ccc(O)c(Cl)c3)n2)cc1)Nc1cccc(Cl)c1Cl`, the GI50 is 12.8 µM in the experiment on DU-145 prostate; 3.26 µM in the experiment on HCT-116 colon; 5.33 µM in the experiment on HCT-15 colon; 1.16 µM in the experiment on HOP-92 NSCLC; 14.5 µM in the experiment with IGROV1 ovarian; 4.94 µM in the experiment on MALME-3M melanoma. In addition, the GI50 was 1.52 µM in the experiment with MDA-MB-231 breast, 4.5 µM in the experiment on MDA-MB-435, 6.86 µM in the experiment with OVCAR-8 ovarian and 18.6 µM in the experiment on SF-268 CNS. Besides, the TGI was above 32.5 µM in the experiment on DU-145 prostate; 21.6 µM in the experiment on HCT-116 colon; above 32.5 µM in the experiment on HCT-15 colon; 9.84 µM in the experiment on HOP-92 NSCLC; above 32.5 µM with IGROV1 ovarian; above 32.5 µM in the experiment on MALME-3M melanoma. The TGI was 10.3 µM in the experiment with MDA-MB-231 breast, above 32.5 µM with MDA-MB-435, above 32.5 µM with OVCAR-8 ovarian and above 32.5 µM in the experiment with SF-268 CNS.
`COC(=O)C1OC(O[C@H]2CC[C@]3(C)[C@H]4CC=C5[C@@H]6CC(C)(C)CC[C@]6(C(=O)OC6OCC(O)C(O)C6OC6OC(C)C(OC7OCC(OC8OCC(O)C(O)C8O)C(O)C7O)C(O)C6O)[C@H](O)C[C@@]5(C)[C@]4(C)CC[C@H]3C2(C)C)C(O)C(O)C1O` (stereo not given in full): the TGI came out at 16.9 µM in the experiment on DU-145 prostate; 12.9 µM in the experiment on HCT-116 colon; 22.7 µM in the experiment on HCT-15 colon; 4.77 µM in the experiment with HOP-92 NSCLC; 9.34 µM with IGROV1 ovarian; 14.5 µM in the experiment on MALME-3M melanoma. The TGI with MDA-MB-231 breast was determined as 9.33 µM; in the experiment on MDA-MB-435, 3.58 µM; in the experiment with OVCAR-8 ovarian it was 13.2 µM; with SF-268 CNS, 13.9 µM.
For the compound `CC(C)(C)c1ccc(OCC(=O)O)c(Cl)c1`, the TGI with DU-145 prostate, with HCT-116 colon, with HCT-15 colon, in the experiment on HOP-92 NSCLC, with IGROV1 ovarian and in the experiment with MALME-3M melanoma was above 100 µM in each case. Also, the TGI in the experiment on MDA-MB-231 breast, in the experiment on MDA-MB-435, in the experiment with OVCAR-8 ovarian and in the experiment with SF-268 CNS was above 100 µM each time.
As to `Cc1cc(/N=C/c2ccc(C#N)cc2)n(-c2ccccc2)n1`, the TGI in the experiment on DU-145 prostate, in the experiment with HCT-116 colon, in the experiment on HCT-15 colon, in the experiment on HOP-92 NSCLC, in the experiment with IGROV1 ovarian and with MALME-3M melanoma was above 100 µM in each case. Moreover, the TGI with MDA-MB-231 breast, in the experiment with MDA-MB-435, in the experiment on OVCAR-8 ovarian and in the experiment with SF-268 CNS was above 100 µM each time.
Consider `CC1=CC(=O)CC2(C)CCC(C(C)CC(=O)CC(C)C)CC12` (stereo not given), for which the TGI is above 100 µM with DU-145 prostate; 30.4 µM in the experiment on HCT-116 colon; above 100 µM with HCT-15 colon; above 100 µM in the experiment on HOP-92 NSCLC; 72.5 µM with IGROV1 ovarian; 62.4 µM with MALME-3M melanoma. Further, the TGI in the experiment on MDA-MB-231 breast was above 100 µM; in the experiment with MDA-MB-435, 39 µM; in the experiment on OVCAR-8 ovarian, 53.2 µM; in the experiment with SF-268 CNS, above 100 µM.
In the case of `COc1c(O)c(O)cc2c1-c1ccc(OC)c(=O)cc1C(NC(C)=O)CC2` (stereo not given), the TGI with DU-145 prostate was 40.6 µM; in the experiment with HCT-116 colon, 25.6 µM; in the experiment on HCT-15 colon, above 100 µM; in the experiment on HOP-92 NSCLC it was 17.8 µM; with IGROV1 ovarian, above 100 µM; in the experiment with MALME-3M melanoma, above 100 µM. For the same compound, the TGI was above 59.4 µM in the experiment with MDA-MB-231 breast, 3.75 µM in the experiment on MDA-MB-435, 62.2 µM in the experiment on OVCAR-8 ovarian and above 95.2 µM in the experiment with SF-268 CNS.
Consider `CC(C)(C)OC(=O)C1C(=O)NC(=O)CC1C(COCc1ccccc1)OCc1ccccc1` (stereo not given), for which the TGI with DU-145 prostate is above 100 µM; in the experiment with HCT-116 colon, 32.7 µM; in the experiment on HCT-15 colon it was 54.5 µM; with HOP-92 NSCLC, 30.5 µM; with IGROV1 ovarian it was 52.5 µM; in the experiment with MALME-3M melanoma, 35.5 µM. Also, the TGI is 36.4 µM in the experiment with MDA-MB-231 breast, 49.7 µM in the experiment on MDA-MB-435, above 100 µM in the experiment with OVCAR-8 ovarian and 59.3 µM with SF-268 CNS.
On to `COc1ccc(N=Nc2c3c(c(O)c4ccccc24)CCC(C)(C)O3)cc1`, for which the TGI in the experiment on DU-145 prostate turned out to be 71.8 µM; with HCT-116 colon, 28.9 µM; with HCT-15 colon, 28.9 µM; in the experiment with HOP-92 NSCLC, 47.1 µM; in the experiment with IGROV1 ovarian it was 35.5 µM; in the experiment with MALME-3M melanoma, 40.6 µM. Besides, the TGI in the experiment with MDA-MB-231 breast is 63.9 µM; in the experiment on MDA-MB-435, 32.4 µM; with OVCAR-8 ovarian, above 100 µM; in the experiment with SF-268 CNS, 31.5 µM.

These data come from PubChem BioAssay (NCI).
